Results reported in ChEMBL document CHEMBL1146992, “Identification of potent phenyl imidazoles as opioid receptor agonists” (Bioorg Med Chem Lett, 2006).

Legend:
[1] = molecular target: Opioid receptors; mu & delta (Rattus norvegicus) (UniProt P33533+P33535); experiment: Selectivity for delta opioid receptor over mu opioid receptor; format: protein assay
Mu-type opioid receptor [2] = molecular target: Mu-type opioid receptor (Rattus norvegicus, UniProt P33535); experiment: Displacement of [3H]DAMGO from mu opioid receptor in rat brain; format: tissue-based
[3] = molecular target: Delta-type opioid receptor (Rattus norvegicus, UniProt P33533); experiment: Displacement of [3H]DPDPE from delta opioid receptor in rat brain; format: tissue-based
Mu-type opioid receptor [4] = molecular target: Mu-type opioid receptor (Cavia porcellus, UniProt P97266); experiment: Activity against mu opioid receptor by stimulation of [35S]GTP-gamma-S binding in CHO-hgamma cells; format: functional, cell-based
[5] = molecular target: Delta-type opioid receptor (Mus musculus, UniProt P32300); experiment: Activity against delta opioid receptor by stimulation of [35S]GTP-gamma-S binding in CHO-hgamma cells; format: functional, cell-based
Delta-type opioid receptor (Mus musculus, UniProt P32300), sequence (P32300 whole entry): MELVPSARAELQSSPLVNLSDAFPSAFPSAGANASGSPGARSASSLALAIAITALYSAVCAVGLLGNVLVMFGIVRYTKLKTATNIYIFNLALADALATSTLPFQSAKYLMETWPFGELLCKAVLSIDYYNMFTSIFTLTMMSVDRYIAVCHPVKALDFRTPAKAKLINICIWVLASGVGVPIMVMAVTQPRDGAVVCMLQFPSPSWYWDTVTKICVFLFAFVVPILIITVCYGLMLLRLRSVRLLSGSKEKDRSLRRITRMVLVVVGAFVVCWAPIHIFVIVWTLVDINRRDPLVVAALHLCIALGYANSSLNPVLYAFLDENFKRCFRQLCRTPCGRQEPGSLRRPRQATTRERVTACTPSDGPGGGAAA

Delta-type opioid receptor (Rattus norvegicus, UniProt P33533), sequence (P33533 whole entry): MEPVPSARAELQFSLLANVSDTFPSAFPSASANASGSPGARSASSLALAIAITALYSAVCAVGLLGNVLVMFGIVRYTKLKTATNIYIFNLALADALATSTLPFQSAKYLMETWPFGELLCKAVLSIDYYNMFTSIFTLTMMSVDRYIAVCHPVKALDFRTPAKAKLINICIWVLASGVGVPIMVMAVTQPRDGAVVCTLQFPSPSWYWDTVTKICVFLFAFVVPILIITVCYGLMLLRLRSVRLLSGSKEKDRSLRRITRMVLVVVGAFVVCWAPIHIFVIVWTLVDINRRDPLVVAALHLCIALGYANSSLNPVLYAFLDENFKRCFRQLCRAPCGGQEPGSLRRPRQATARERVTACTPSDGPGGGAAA
Opioid receptors; mu & delta (Rattus norvegicus), sequence (P33533 whole entry, looked up): as the sequence (P33533 whole entry) above
Opioid receptors; mu & delta (Rattus norvegicus), sequence (P33535 whole entry, looked up): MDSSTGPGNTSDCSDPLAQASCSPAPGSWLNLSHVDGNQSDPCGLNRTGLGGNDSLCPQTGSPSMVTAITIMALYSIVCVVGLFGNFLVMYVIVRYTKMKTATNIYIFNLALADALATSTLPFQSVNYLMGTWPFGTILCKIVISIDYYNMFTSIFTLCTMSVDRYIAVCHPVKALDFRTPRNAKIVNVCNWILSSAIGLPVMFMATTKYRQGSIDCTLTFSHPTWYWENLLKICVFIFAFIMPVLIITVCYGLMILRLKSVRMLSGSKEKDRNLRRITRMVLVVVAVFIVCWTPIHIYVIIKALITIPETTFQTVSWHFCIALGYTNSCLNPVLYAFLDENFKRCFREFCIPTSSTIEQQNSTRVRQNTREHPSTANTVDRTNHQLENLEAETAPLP
Mu-type opioid receptor (Cavia porcellus, UniProt P97266), sequence (P97266 whole entry): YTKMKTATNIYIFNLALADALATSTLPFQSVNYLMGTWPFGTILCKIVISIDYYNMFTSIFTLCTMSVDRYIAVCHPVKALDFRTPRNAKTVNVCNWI
Mu-type opioid receptor (Rattus norvegicus, UniProt P33535), sequence (P33535 whole entry): as the sequence (P33535 whole entry, looked up) above

SMILES | Ratio Ki [1] | Ki (Mu-type opioid receptor [2]) [nM] | Ki [3] [nM] | EC50 (Mu-type opioid receptor [4]) [nM] | EC50 [5] [nM]
N[C@@H](Cc1ccc(Cl)cc1)C(=O)N1Cc2ccccc2C[C@H]1c1nc(-c2ccccc2)c[nH]1 | 4.6 | – | – | – | –
N[C@@H](Cc1ccccc1)C(=O)N1CCCC[C@H]1c1nc(-c2ccccc2)c[nH]1 | 0.02 | 18 | 1130 | – | –
Cc1cc(C(N)=O)cc(C)c1C[C@H](N)C(=O)N1Cc2ccccc2C[C@H]1c1nc(-c2ccccc2)c[nH]1 | – | 1.4 | – | 161 | 22
Cc1cc(O)cc(C)c1C[C@H](N)C(=O)N1CCCC[C@H]1c1nc(-c2ccccc2)c[nH]1 | 0.03 | 0.05 | 1.9 | 2 | 37
Cc1[nH]c([C@@H]2Cc3ccccc3CN2C(=O)[C@@H](N)Cc2ccc(C#N)cc2)nc1-c1ccccc1 | 1.8 | 1340 | 752 | – | –
N[C@@H](Cc1ccc(C(=O)O)cc1)C(=O)N1Cc2ccccc2C[C@H]1c1nc(-c2ccccc2)c[nH]1 | 1.1 | 5800 | 5200 | – | –
Cc1[nH]c([C@@H]2Cc3ccccc3CN2C(=O)[C@@H](N)Cc2ccc(N)cc2)nc1-c1ccccc1 | 9 | – | – | – | –
N[C@@H](Cc1ccc(S(N)(=O)=O)cc1)C(=O)N1Cc2ccccc2C[C@H]1c1nc(-c2ccccc2)c[nH]1 | 3.4 | – | – | – | –
CS(=O)(=O)Nc1ccc(C[C@H](N)C(=O)N2Cc3ccccc3C[C@H]2c2nc(-c3ccccc3)c[nH]2)cc1 | 1 | 356 | 342 | – | –
Cc1[nH]c([C@@H]2Cc3ccccc3CN2C(=O)[C@@H](N)Cc2ccc(F)cc2)nc1-c1ccccc1 | 19 | – | – | – | –
NC(=O)c1ccc(C[C@H](N)C(=O)N2Cc3ccccc3C[C@H]2c2nc(-c3ccccc3)c[nH]2)cc1 | 18.4 | 23 | 1.3 | 155 | 3
N[C@@H](Cc1ccc(CO)cc1)C(=O)N1Cc2ccccc2C[C@H]1c1nc(-c2ccccc2)c[nH]1 | 2 | 912 | 466 | – | –
Cc1[nH]c([C@@H]2Cc3ccccc3CN2C(=O)[C@@H](N)Cc2ccccc2)nc1-c1ccccc1 | 8 | 1830 | 236 | – | –
CC(=O)Nc1ccc(C[C@H](N)C(=O)N2Cc3ccccc3C[C@H]2c2nc(C)c(-c3ccccc3)[nH]2)cc1 | 6 | – | – | – | –
COc1ccc(C[C@H](N)C(=O)N2Cc3ccccc3C[C@H]2c2nc(C)c(-c3ccccc3)[nH]2)cc1 | 6.4 | – | – | – | –
N[C@@H](Cc1ccccc1)C(=O)N1Cc2ccccc2C[C@H]1c1nc(-c2ccccc2)c[nH]1 | 1.7 | 443 | 266 | – | –
Cc1cc(C(N)=O)cc(C)c1C[C@H](N)C(=O)N1CCCC[C@H]1c1nc(-c2ccccc2)c[nH]1 | – | 0.13 | 14 | 9 | 135
CC(=O)c1ccc(C[C@H](N)C(=O)N2Cc3ccccc3C[C@H]2c2nc(-c3ccccc3)c[nH]2)cc1 | 14 | – | 30 | – | –
NC(=O)c1ccc(C[C@H](N)C(=O)N2CCCC[C@H]2c2nc(-c3ccccc3)c[nH]2)cc1 | 0.02 | 1.2 | – | 100 | 730
Cc1[nH]c([C@@H]2Cc3ccccc3CN2C(=O)[C@@H](N)Cc2ccc(O)cc2)nc1-c1ccccc1 | 75 | – | – | – | –
Cc1cc(O)cc(C)c1C[C@H](N)C(=O)N1Cc2ccccc2C[C@H]1c1nc(-c2ccccc2)c(C)[nH]1 | – | 0.3 | 0.1 | – | –
Cc1cc(O)cc(C)c1C[C@H](N)C(=O)N1Cc2ccccc2C[C@H]1c1nc(C)c(-c2ccccc2)[nH]1 | 3.2 | – | – | – | –
N[C@@H](Cc1ccc(O)cc1)C(=O)N1Cc2ccccc2C[C@H]1c1nc(-c2ccccc2)c[nH]1 | 63 | – | – | – | 19
N[C@@H](Cc1ccc(O)cc1)C(=O)N1CCCC[C@H]1c1nc(-c2ccccc2)c[nH]1 | 0.02 | 3.8 | 198 | – | –
Cc1cc(O)cc(C)c1C[C@H](N)C(=O)N1Cc2ccccc2C[C@H]1c1nc(-c2ccccc2)c[nH]1 | 3.2 | 0.3 | 0.1 | 27 | 0.9
Cc1[nH]c([C@@H]2CCCCN2C(=O)[C@@H](N)Cc2ccc(O)cc2)nc1-c1ccccc1 | 0.1 | – | – | 142 | 500
